Results from US6495525B1, “VLA-4 inhibitor: oMePUPA-V” (Biogen, Inc., priority 1998, dated 2002).

Assays:
VLA-4 = VLA-4 (Homo sapiens, UniProt P05556+P13612); experiment: CS1 Cell Adhesion Assay, Jurkat cells to CS1/BSA conjugate; format: cell-based; parameters: endogenous in cells; host or cells: Jurkat (human T cell line); conditions: in the presence of Mn+2
Experimental: The peptide NH2-cysteine-tyrosine-CS-1 was synthesized and coupled to BSA-SMCC (SMCC is a heterobifunctional crosslinker which reacts with free amino groups on BSA and the sole cysteine of the synthetic peptide) at a CS1/BSA ratio of 10:1. Wells were coated overnight with 100 μL of conjugate diluted to a final concentration of 1 ug/ml. The next day the wells were blocked with BSA in PBS for one hour and then washed three times.
The human T cell line, Jurkat, was labeled with 2 μM BCECF-AM, a fluorescent dye (2′, 7′, bis-(2-carboxyethyl)-5 and -6) carboxy fluorescein acetoxymethyl ester (Molecular Probes Inc., Eugene, Oregon; catalog #B-1150) that is internalized and deesterified thus trapping the dye within live cells. Jurkat cells (1×10^5 cells/well) in buffer containing 1 mM Mn^+2 were added to the coated plates in the presence of three-fold serial dilutions of inhibitor. Each concentration was assayed in duplicate. After 30 minutes at room temperature, the plates were inverted and washed three times or until no cells were adherent to control wells coated with BSA alone. CS1-adherent cells were quantitated in a Cytofluor fluorescent platereader using an excitation wavelength of 485 nm and an emission wavelength of 530 nm.
Cells adhered to CS1/BSA in the absence of compound served as the 0% inhibition control whereas cells adhering to BSA alone served as the 100% inhibition control. IC50's were calculated using Deltagraph software, version 5.

[1] = Bulk / drug substance stability (HPLC); format: physicochemical
Experimental: At four weeks, one or two degradation peaks became detectable at 40° C. and 50° C., but the level of each impurity peak was still less than 0.02%.

Sequence of VLA-4 (P13612 34-1032): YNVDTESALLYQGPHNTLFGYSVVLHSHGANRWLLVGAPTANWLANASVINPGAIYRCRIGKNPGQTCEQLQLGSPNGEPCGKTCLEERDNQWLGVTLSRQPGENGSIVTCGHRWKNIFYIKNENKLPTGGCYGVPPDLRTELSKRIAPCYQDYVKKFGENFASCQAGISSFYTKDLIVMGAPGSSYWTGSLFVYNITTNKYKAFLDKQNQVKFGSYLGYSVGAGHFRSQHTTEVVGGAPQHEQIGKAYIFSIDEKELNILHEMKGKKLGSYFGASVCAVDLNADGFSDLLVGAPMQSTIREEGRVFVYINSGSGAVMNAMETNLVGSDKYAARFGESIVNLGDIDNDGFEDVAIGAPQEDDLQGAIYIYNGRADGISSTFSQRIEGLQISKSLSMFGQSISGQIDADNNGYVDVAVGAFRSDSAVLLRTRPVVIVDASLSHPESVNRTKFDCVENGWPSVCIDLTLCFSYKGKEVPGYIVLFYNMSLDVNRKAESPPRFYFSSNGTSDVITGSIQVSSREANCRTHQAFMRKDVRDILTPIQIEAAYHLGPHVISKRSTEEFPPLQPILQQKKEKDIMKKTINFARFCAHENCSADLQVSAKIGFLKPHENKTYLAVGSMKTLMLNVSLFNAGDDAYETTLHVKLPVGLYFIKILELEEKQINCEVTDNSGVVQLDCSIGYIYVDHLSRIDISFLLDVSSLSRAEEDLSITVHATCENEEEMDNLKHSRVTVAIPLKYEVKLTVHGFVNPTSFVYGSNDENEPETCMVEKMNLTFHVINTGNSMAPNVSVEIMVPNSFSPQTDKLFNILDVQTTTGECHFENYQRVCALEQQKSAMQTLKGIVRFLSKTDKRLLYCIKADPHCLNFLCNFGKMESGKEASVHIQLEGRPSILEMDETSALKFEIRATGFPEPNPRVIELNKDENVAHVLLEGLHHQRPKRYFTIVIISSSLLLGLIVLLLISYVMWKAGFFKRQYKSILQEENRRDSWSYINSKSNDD
Sequence of VLA-4 (P05556 21-798): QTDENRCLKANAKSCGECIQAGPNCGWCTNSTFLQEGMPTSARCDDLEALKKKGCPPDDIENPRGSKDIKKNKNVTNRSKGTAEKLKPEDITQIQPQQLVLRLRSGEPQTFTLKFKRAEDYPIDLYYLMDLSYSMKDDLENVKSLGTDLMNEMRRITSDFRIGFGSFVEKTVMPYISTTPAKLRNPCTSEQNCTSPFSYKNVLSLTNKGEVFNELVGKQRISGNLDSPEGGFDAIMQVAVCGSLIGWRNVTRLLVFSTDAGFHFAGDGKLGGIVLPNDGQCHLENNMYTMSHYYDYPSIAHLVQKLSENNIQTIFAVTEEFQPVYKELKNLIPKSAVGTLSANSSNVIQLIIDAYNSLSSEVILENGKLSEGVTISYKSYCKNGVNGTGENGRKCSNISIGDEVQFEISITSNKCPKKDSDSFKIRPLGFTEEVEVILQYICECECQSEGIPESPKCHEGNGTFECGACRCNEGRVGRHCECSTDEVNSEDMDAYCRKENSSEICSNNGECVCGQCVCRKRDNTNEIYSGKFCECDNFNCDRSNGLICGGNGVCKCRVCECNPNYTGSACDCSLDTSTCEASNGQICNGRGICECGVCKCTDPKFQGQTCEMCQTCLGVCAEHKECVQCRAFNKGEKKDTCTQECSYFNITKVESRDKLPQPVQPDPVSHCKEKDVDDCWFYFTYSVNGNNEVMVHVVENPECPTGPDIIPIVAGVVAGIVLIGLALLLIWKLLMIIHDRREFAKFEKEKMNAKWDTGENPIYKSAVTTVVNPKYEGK

| Structure (SMILES) | blocking of Jurkat cell adhesion to CS1 (in words) (VLA-4) | level of each impurity (degradation) peak ([1]; four weeks, 40° C. and 50° C.) | degradation on storage (in words) ([1]; two weeks, 40° C. closed vial, 50° C. closed vial, 25° C., RH 60%, 40° C., RH 75%) |
| --- | --- | --- | --- |
| O=C(O)CN(CCN(CC(=O)O)CC(=O)O)CC(=O)O [EDTA, reference compound] | blocked completely |  |  |
| Cc1ccccc1NC(=O)Nc1ccc(CC(=O)N2CCC[C@@H]2C(=O)NC(C)CC(=O)O)cc1 (stereo partly drawn) [oMePUPA-V] |  | less than 0.02% | No degradation |
